pIC50: −log10 of the molar value. Where a SMILES comes first, the peptide text is derived from it. Bridges are numbered along the chain shown (N, C = ends). [ ]: non-standard residue; d: D form. The star is where a group is joined. hPhe(3-Cl-4-CF3) = N[C@@H](CCc1ccc(C(F)(F)F)c(Cl)c1)C(=O)O; NPrPhe(4-CF3) = CCCN[C@@H](Cc1ccc(C(F)(F)F)cc1)C(=O)O; NMeGly(cPent) = CN[C@H](C(=O)O)C1CCCC1; Pro(4,4-F2) = O=C(O)[C@@H]1CC(F)(F)CN1; Hyp = O=C(O)[C@@H]1C[C@@H](O)CN1; NMeL = CN[C@@H](CC(C)C)C(=O)O; Morpholide = C1CN(*)CCO1; NMeA = CN[C@@H](C)C(=O)O; Ac5c = NC1(C(=O)O)CCCC1; Aze = O=C(O)[C@@H]1CCN1; Ac4c = NC1(C(=O)O)CCC1; Sar = CNCC(=O)O
Assays:
[1] = biological target: HRAS wild-type protein (Homo sapiens, UniProt P01112); assay: Binding to HRAS by surface plasmon resonance (SPR), KD and KD ratio to KRAS; conditions: ratio of KD for HRAS wild-type protein to KD for KRAS
Chain of HRAS wild-type protein (P01112 whole entry): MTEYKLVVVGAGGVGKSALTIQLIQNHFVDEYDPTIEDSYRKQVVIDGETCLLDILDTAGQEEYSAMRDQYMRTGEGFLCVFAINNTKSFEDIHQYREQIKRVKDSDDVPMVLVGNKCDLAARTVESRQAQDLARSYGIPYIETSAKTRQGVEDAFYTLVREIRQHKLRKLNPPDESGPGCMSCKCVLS
Summary of the method: (§1)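 Captured GDP-RAS (~100–300 RU) was exposed to increasing compound concentrations, 75 s per step, in running buffer with 10 µM GDP, 10 mM MgCl2 and 4% DMSO at pH 7.4.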

[2] = biological target: GDP-bound NRAS wild-type protein (Homo sapiens, UniProt P01111); assay: Binding to NRAS by surface plasmon resonance (SPR), KD and KD ratio to KRAS; conditions: ratio of KD for GDP-bound NRAS wild-type protein to KD for KRAS
Chain of GDP-bound NRAS wild-type protein (P01111 whole entry): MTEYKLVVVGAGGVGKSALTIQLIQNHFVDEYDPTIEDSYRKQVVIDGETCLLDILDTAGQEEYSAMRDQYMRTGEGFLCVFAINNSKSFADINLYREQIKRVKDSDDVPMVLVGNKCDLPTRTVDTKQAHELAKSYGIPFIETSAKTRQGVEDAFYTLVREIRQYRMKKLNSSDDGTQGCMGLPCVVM
Summary of the method: as §1

[3] = system: human lung cancer strain NCI-H441; assay type: cell-based
Summary of the method: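 Step one: dispense the test compound in serial DMSO dilutions. Step three: add the reagent and measure […].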

## CCCN1C(=O)[C@@H]2CCN2C(=O)[C@H](C)N(C)C(=O)[C@H]([C@@H](C)CC)NC(=O)[C@H](CC(C)C)N(C)C(=O)C[C@@H](C(=O)N2CCOCC2)NC(=O)[C@H](C2CCCC2)N(C)C(=O)C2(CCCC2)NC(=O)[C@@H]2CC(F)(F)CN2C(=O)[C@H](CCc2ccc(C(F)(F)F)c(Cl)c2)NC(=O)CN(C)C(=O)[C@@H]1Cc1ccc(C(F)(F)F)cc1 [PP0345] ([NMeL]I[NMeA][Aze][NPrPhe(4-CF3)][Sar][hPhe(3-Cl-4-CF3)][Pro(4,4-F2)][Ac5c][NMeGly(cPent)]D-Morpholide; lactam N-11)
[1]
  HRAS /KRAS: B (a compound having 3 or more and less than 10 is denoted as B)
[2]
  NRAS /KRAS: C (A compound having a KD ratio of 0.1 or more and less than 3 is denoted as C)
[3]
  pIC50: 7.26

## CCCN1C(=O)[C@@H]2CCN2C(=O)[C@H](C)N(C)C(=O)[C@H]([C@@H](C)CC)NC(=O)[C@H](CC(C)C)N(C)C(=O)C[C@@H](C(=O)N2CCOCC2)NC(=O)[C@H](C2CCCC2)N(C)C(=O)C2(CCC2)NC(=O)[C@@H]2CC(F)(F)CN2C(=O)[C@H](CCc2ccc(C(F)(F)F)c(Cl)c2)NC(=O)CN(C)C(=O)[C@@H]1Cc1ccc(C(F)(F)F)cc1 [PP0346] ([NMeL]I[NMeA][Aze][NPrPhe(4-CF3)][Sar][hPhe(3-Cl-4-CF3)][Pro(4,4-F2)][Ac4c][NMeGly(cPent)]D-Morpholide; lactam N-11)
[1]
  HRAS /KRAS: B (a compound having 3 or more and less than 10 is denoted as B)
[2]
  NRAS /KRAS: C (A compound having a KD ratio of 0.1 or more and less than 3 is denoted as C)
[3]
  pIC50: 7.16

## CCCN1C(=O)[C@@H]2CCN2C(=O)[C@H](C)N(C)C(=O)[C@H]([C@@H](C)CC)NC(=O)[C@H](CC(C)C)N(C)C(=O)C[C@@H](C(=O)N2CCOCC2)NC(=O)[C@H](C2CCCC2)N(C)C(=O)C2(CCCC2)NC(=O)[C@@H]2C[C@@H](OCC)CN2C(=O)[C@H](CCc2ccc(C(F)(F)F)c(Cl)c2)NC(=O)CN(C)C(=O)[C@@H]1Cc1ccc(C(F)(F)F)cc1 [PP0347] ([NMeL]I[NMeA][Aze][NPrPhe(4-CF3)][Sar][hPhe(3-Cl-4-CF3)][Hyp](Et)[Ac5c][NMeGly(cPent)]D-Morpholide; lactam N-11)
[1]
  HRAS /KRAS: B (a compound having 3 or more and less than 10 is denoted as B)
[2]
  NRAS /KRAS: C (A compound having a KD ratio of 0.1 or more and less than 3 is denoted as C)
[3]
  pIC50: 7.96

## CCCN1C(=O)[C@@H]2CCN2C(=O)[C@H](C)N(C)C(=O)[C@H]([C@@H](C)CC)NC(=O)[C@H](CC(C)C)N(C)C(=O)C[C@@H](C(=O)N2CCOCC2)NC(=O)[C@H](C2CCCC2)N(C)C(=O)C2(CCC2)NC(=O)[C@@H]2C[C@@H](OCC)CN2C(=O)[C@H](CCc2ccc(C(F)(F)F)c(Cl)c2)NC(=O)CN(C)C(=O)[C@@H]1Cc1ccc(C(F)(F)F)cc1 [PP0348] ([NMeL]I[NMeA][Aze][NPrPhe(4-CF3)][Sar][hPhe(3-Cl-4-CF3)][Hyp](Et)[Ac4c][NMeGly(cPent)]D-Morpholide; lactam N-11)
[1]
  HRAS /KRAS: B (a compound having 3 or more and less than 10 is denoted as B)
[2]
  NRAS /KRAS: C (A compound having a KD ratio of 0.1 or more and less than 3 is denoted as C)
[3]
  pIC50: 7.82

## CCCN1C(=O)[C@@H]2CCN2C(=O)CN(C)C(=O)[C@H]([C@@H](C)CC)NC(=O)[C@H](CC(C)C)N(C)C(=O)C[C@@H](C(=O)N2CCOCC2)NC(=O)[C@H](C2CCCC2)N(C)C(=O)C2(CCCC2)NC(=O)[C@@H]2CCCN2C(=O)[C@H](CCc2ccc(C(F)(F)F)c(Cl)c2)NC(=O)CN(C)C(=O)[C@@H]1Cc1ccc(C(F)(F)F)cc1 [PP0349] ([NMeL]I[Sar][Aze][NPrPhe(4-CF3)][Sar][hPhe(3-Cl-4-CF3)]P[Ac5c][NMeGly(cPent)]D-Morpholide; lactam N-11)
[1]
  HRAS /KRAS: B (a compound having 3 or more and less than 10 is denoted as B)
[2]
  NRAS /KRAS: C (A compound having a KD ratio of 0.1 or more and less than 3 is denoted as C)
[3]
  pIC50: 7.12
